Measured values from patent publication US20080220416A1, “Compositions for Inhibiting Cell Growth and Inducing Apoptosis in Cancer Cells and Methods of Use Thereof” (THE BOARD OF TRUSTEES OF THE UNIVERSITY OF ILLINOI, priority 2004, published 2008).
Square brackets hold non-standard residues; d marks the D form. Peptide text beside a SMILES is read from it. * marks the point of attachment. Nle = CCCC[C@H](N)C(=O)O; Cbz = O=C(OCc1ccccc1)*

What was measured:
NOXA [1] = experiment: NOXA in whole cell protein extracts of subcutaneous C8161 tumors; format: in vivo, Nude mice; conditions: 2.5 mg/kg; versus PBS
Method: Initially, 1×10^6 aggressive melanoma cells (C8161) (ATCC, Rockville, Md.) were injected subcutaneously in Nude (nulnu) mice (6-7 weeks old; Harlan, Indianapolis, Ind.) on day 0, and the tumors were allowed bearing groups (5 mice/group) and injected with either (a) PBS as control; (b) bortezomib at 1.25 mg/kg; or (c) bortezomib at 2.5 mg/kg. Treatment began on day 8 when tumors were palpable and injected four times peri-tumorally. On day 20, mice were euthanized and tumors dissected from surrounding tissue and weighted. […] Expanding the in vitro studies to in vivo studies, subcutaneous tumors produced in Nude mice (as described above in Example 7) were tested to detect NOXA using whole cell protein extracts as described above.

NOXA [2] = experiment: Bortezomib on NOXA in SAOS2 osteogenic sarcoma cells (Western blot); format: cell-based; conditions: SAOS2, p53-null; 1 μM; 24 hr exposure
Method: To test whether the NOXA inducing effect of bortezomib is limited to melanomas, SAOS2 cells (ATTC, Rockville, Md.), an osteogenic sarcoma cell line (p53-null) was exposed to 1 μM bortezomib. SAOS2 cells were tested for p53 expression and induction of NOXA expression before and during a 24 hr exposure to bortezomib (1 μM). The cells were assayed by Western blot using antibodies to NOXA, p53 and β-actin as described above.

NOXA [3] = experiment: Western blot of pro-survival and pro-apoptotic proteins in melanoma cells; format: cell-based, human; conditions: 10 μM
Method: To assess the effect of z-Leu-Leu-Nle-CHO on pro-apoptotic proteins, RJ002L pulmonary metastases melanoma cells were grown in RPMI supplemented with 10% FBS. Highly proliferating cells (i.e., cells that had reached approximately 30% confluency) were exposed to z-Leu-Leu-Nle-CHO by replenishing the culture media with media containing z-Leu-Leu-Nle-CHO (10 μM) (experimental group) or media without z-Leu-Leu-Nle-CHO (control group) and the cells were incubated for a specified period of time prior to harvesting the cells for further analysis.
Western blot analyses following z-Leu-Leu-Nle-CHO and control treatment of RJ002L melanoma cells were performed to determine the effect of z-Leu-Leu-Nle-CHO on pro-survival and pro-apoptotic proteins. Whole cell extracts were prepared and analyzed as described by Denning, M. F. et al., 1998, J Biol Chem 273: 29995-30002, 1998. The enriched mitochondria pellet and mitochondria-free cytosol of melanoma cells were prepared with the APO ALERT cell fraction kit (Clontech Laboratories, Inc. Palo Alto, Calif.) according to the manufacturer's instructions. For Western blot analysis, equal amounts of protein extracted from each sample (20-30 μg) were loaded into pre-cast 7% NuPAGE Tris-acetate gels or 4-12% NuPAGE Bis-tris gels (Invitrogen). Proteins were separated by SDS-PAGE and transferred to polyvinylidene difluoride membranes (Bio-Rad, Hercules, Calif.) using Invitrogen's buffering system. The indicated primary antibodies were incubated for indicated period of time, washed, and visualized by incubation with horseradish peroxidase-conjugated secondary antibodies and chemiluminescent reagents (Roche Diagnostics Corporation, Indianapolis, Ind.). Antibodies used were as follows: From Santa Cruz Biotechnology: Bcl-2 (SC-7382), BCl-xL (SC-634), Mcl-1 (SC-819), survivin (SC-10811), Bax (SC-493), Bak (SC-832), Bim (SC-11425), PUMA (SC-19187), p53 (SC-126), and GADD45 (SC-796); From Cell Signaling: Bid (#2002), and cleaved caspase 9 (9501); NOXA (OP180—Oncogene Research Products), Apaf-1 (559683-BD Bioscience), Smac/Diablo (IMG-248-Imgenex), cytochrome C (part of kit—Apo Alert™ cell fraction kit—Clontech Laboratories, Inc.—Palo Alto, Calif.), PARP (Pharmingen, San Diego, Calif.) and β-actin (Sigma Chemical Co., St. Louis, Mo.). Secondary antibodies anti-goat, anti-mouse, anti-rabbit and anti-rat (IgG-HRP) were purchased from Vector Laboratories (Burlingame, Calif.), Santa Cruz Biotechnology and Amersham Biosciences.
To determine if p53 status influences induction of NOXA, NOXA induction in z-Leu-Leu-Nle-CHO-treated melanoma cell lines (10 μM) containing p53 mutations (i.e. C8161, SK-MeI-28, MUM2B) were examined using Western blot analysis as described above and compared to that of Western blot results from z-Leu-Leu-Nle-CHO-treated melanoma cell lines (10 μM) having wild-type p53 (RJ002L, SK-MeI-100). […] In contrast, C8161, which carries a R196Stop mutation in only one allele, has p53 expression similar to that observed in wild-type cell lines. […] NOXA induction occurred earlier in SK-MeI-100 cells than in the other tested cell lines (FIG. 2C). Apaf-1 levels were not increased in response to z-Leu-Leu-Nle-CHO (data not shown).

Notch-1 = Notch-1 siRNA in CaSki cells, Notch-1 and Notch-4 Western blot; format: cell-based, human
Method: The human papilloma virus (HPV)-positive human cervical cancer cell line CaSki was obtained from ATCC (Rockville, Md.) and cultured in DMEM medium with 10% FBS. Double-stranded synthetic 21-mer RNA oligonucleotides (siRNAs) were purchased from Dharmacon (Lafayette, Colo.). […] Sequence specificity was determined by BLAST searches for the uniqueness. Transfection of CaSki human cervical cancer cells with siRNAs (200 nM siRNA oligos/60 mm dish) was performed by using Oligofectamine Transfection Reagents (InVitrogen) according to manufacturer's instructions.
At 24 and 48 hours after transfection with Notch-1 siRNA or scrambled control siRNA, the CaSki cells were assayed for Notch-1 and Notch-4 expression by Western blotting. Immunoblotting was performed using antibodies to Notch-1 (C-20), and Notch-4 (H-225) from Santa Cruz Biotechnology (Santa Cruz, Calif.). Secondary anti-goat, anti-mouse, anti-rabbit and anti-rat antibodies (IgG-HR1) were purchased from Vector Laboratories (Burlingame, Calif.), Santa Cruz Biotechnology and Amersham Biosciences. For Western blot analysis, equal amounts of protein extracted from each sample (30 μg) were loaded into pre-cast 7% NuPAGE Tris-acetate gels or 4-12% NuPAGE Bis-tris gels (Invitrogen). Proteins were separated by SDS-PAGE and transferred to polyvinylidene difluoride membranes (Bio-Rad, Hercules, Calif.) using Invitrogen's buffering system. […]

How did the “NOXA in treated tumors” value (NOXA [1]) turn out when `CC(C)C[C@H](NC(=O)[C@H](Cc1ccccc1)NC(=O)c1cnccn1)B(O)O` [bortezomib, N-(2-pyrazine)carbonyl-L-phenylalanine-L-leucine boronic acid] was run?
Its value is “did induce NOXA in these treated tumors”.

And the “time course of NOXA induction” value (NOXA [2])?
The value was “induction of NOXA occurred beginning at 3-6 hrs with more prominent levels detected at 18-24 hrs”.

Which results are given for `CCCC[C@@H](C=O)NC(=O)[C@H](CC(C)C)NC(=O)[C@H](CC(C)C)NC(=O)OCc1ccccc1` [z-Leu-Leu-Nle-CHO, N-benzyloxycarbonyl-leucyl-leucyl-norleucinal] (Cbz-Leu-Leu-[Nle]-aldehyde)?
induction of pro-apoptotic proteins (NOXA [3]; RJ002L): induced expression of Bak, Bim, and NOXA; time course of NOXA induction (NOXA [3]; RJ002L): detectable as early as 1 hr and was massive by 6-18 hrs; NOXA induction (NOXA [3]; all tested melanoma cell lines, regardless of p53 mutation status): induced NOXA in all tested melanoma cell lines

Which results are given for “5′-AAGTGTCTGAGGCCAGCAAGA-3′ [Notch-1 siRNA]”?
Notch-1 signaling (Notch-1; 200 nM siRNA, 24 and 48 hours after transfection): effective in genetically inhibiting Notch-1 signaling; Notch-4 levels (Notch-1; data not shown): did not effect levels of Notch-4
